Six compounds from patent EP0942896B1, “SUBSTITUTED PHENOLS AND THIOPHENOLS USEFUL AS ANTIOXIDANT AGENTS” (Aventis Pharmaceuticals Inc., priority 1996, dated 1998) can be followed below.

Read-outs that look alike come from different tables or passages of the source.

One data set has as its system Male Sprague-Dawley Rats. Kind of data set: Serum clinical chemistries in rats fed compound as dietary admixture. Type of data set: in vivo. The note with it: % of control, diet 0.3%, 4 days, N = 5; for ALT: alanine aminotransferase in rat serum; for ALP: alkaline phosphatase in rat serum; for AST: aspartate aminotransferase in rat serum; for GLUC: glucose in rat serum; for response vs control in vivo at 0.3 % in diet: feed or water, 96 h. The text has this: (§1) A typical experiment consists of 4-6 groups of rats (N = 5 per group) with I group being a control which receives no MDL compound and the other groups being treated with 0.3% MDL compound. Some of the compounds are either repeated at 0.3% or evaluated again at the lower dose of 0.1%. House Male Sprague-Dawley rats, 50-100 g, (Harlan Laboratories, Indianapolis, IN) in groups of 5, feeding ad libitum water and Purina Rodent chow (#5002) with or without MDL compound as a dietary admixture for 4 days. Make dietary admixtures (0.3%) by mixing 1.2 grams of an MDL compound with 400 grams of Purina rodent chow (#5002). Mix the MDL compound with approximately 50 grams of food using a mortar and pestle. This is added to the remainder of the food and mixed for 3 hours on a rotary mixer. In the morning of day 5, anesthetize non-fasted rats with carbon dioxide, and collect blood by cardiac puncture. Sacrifice rats by cervical dislocation. Record body weights and liver weights in grams. Record food consumption as grams • day^-1 • rat^-1. Deaths are recorded as mortality. Use aliquots of fresh serum for clinical chemistries, thiobarbituric acid reactive substances (TBARS) and conjugated diene measurements. Freeze aliquots of serum (∼ 0.5mL) and whole livers at -20°C for compound and metabolite concentration determination at a later time.
Allow blood to clot at room temperature for 30 minutes. Obtain serum after centrifugation for 10 min at 4°C at 3000 rpm in a Beckman J-6M/E centrifuge with a JS-4.2 rotor. Analyze fresh serum by a COBAS MIRA S autoanalyzer (Roche Diagnostics) using Roche diagnostic reagents for the following clinical chemistry measurements: alkaline phosphatase (ALP, kit # 44553), alanine transaminase (ALT, kit # 42375), aspartate aminotransferase (AST, kit # 42381), total cholesterol (CHOL, kit # 44334), triglyceride (TG, kit # 44120), and glucose (GLU, kit # 44558). Calculate ALP, ALT, and AST as units/L. Calculate cholesterol, triglycerides, and glucose as mg/dL.

Data set [1] deals with oxidation of serum lipids. Kind of data set: TBARS assay on serum of treated rats (CuSO4-initiated oxidation). It counts as in vivo, Male Sprague-Dawley rats. Particulars: % of control; thiobarbituric acid reactive substances as nmoles MDA, rat serum; diet 0.3%, 4 days; N = 5.
From the text: as §1
In this assay the oxidation of serum lipids is initiated with CuSO4, resulting in the formation of aldehydes, such as malondialdehyde (MDA). Upon incubation with thiobarbituric acid, the absorbance of the aldehydes can be detected at 530-540 nm. As stated in the previous example, TBARS values which are lower than control serum values indicate the relative ability of a test compound to inhibit the oxidation of lipids in a sample. Measure TBARS as follows: mix 100µL of serum with 400µL of a 5mmol CuSO4 solution and incubate at 37°C for 3 hr. Stop the reactions by addition of 1.0mL of 20% trichloroacetic acid. Then add 1.0mL of 0.67% thiobarbituric acid in 0.05 N sodium hydroxide, mix, and incubate the samples for 30 min at 90°C. Centrifuge samples briefly to pellet undissolved material, and transfer the supernatants to a 96-well microtiter plate. Measure absorbances at 540 nm using a Biotek model EL311 microplate reader. The nmoles of MDA produced are calculated from a standard curve of 0 to 10 nmoles of MDA prepared from malonaldehyde bis(dimethylacetal). Serum samples from treated rats are compared to serum samples from control rats that received no MDL compound.

The subject of another data set is oxidation of lipids. Kind of data set: Conjugated diene lag phase determination on pooled serum of treated rats. It counts as in vivo, Male Sprague-Dawley rats. Particulars: not normalized, mean of 2 determinations of pooled rat serum (N = 5), diet 0.3%, 4 days.
From the text: as §1
Conjugated diene lag phase is another indicator of the oxidation of lipids. Lipids exposed to Cu^++ form conjugated dienes that absorb ultraviolet light in the range of 230 to 235 nm. The lag phase of diene formation gives an indication of the amount of oxidation of the lipids. A lag phase longer than control samples indicate inhibition of the oxidation. Determine conjugated diene lay phase using a Varian DMS200 spectrophotometer (fitted with a constant temperature, 5 cuvette sample changer) at 30°C. Add twenty (20) µL of pooled serum to cuvettes containing 3.0mL phosphate buffered saline, pH 7.5, and mix. Measure the absorbances of all cuvettes and set the instrument baseline to zero using the lowest absorbing sample. Next, add 100µL of 1 mmol CuSO4 and mix immediately. Record the absorbance of each cuvette at 2 min intervals for a period of 840 min. Capture the data and transfer to a Microsoft EXCEL® spreadsheet where the curves are smoothed and differentials obtained. Determine lag times mathematically as minutes. Pool serum samples (N = 5); data presented are the mean values of 2 determinations. Compare serum samples from treated rats to serum samples from control rats that received no MDL compound.

A short description of data set [2]: Animal parameters (food, body weight, liver weight/body weight, mortality) in rats. It counts as in vivo. Particulars: 4 days; for food / lw/bw / body wt.: % of control, diet 0.3%, N = 5; for food: grams eaten per day per rat; for lw/bw: liver weight/body weight; for lw/bw / body wt. / mortality: rat; for body wt.: weight in grams; for mortality: male, Sprague-Dawley, in vivo.
From the text: as §1

Data set [3] can be described thus: HPLC quantitation of compound and metabolite concentration in rat serum and liver. Type of data set: in vivo. Particulars: male, Sprague-Dawley, oral, 0.3 % in chow, diet 0.3%, 4 days, mean N = 5.
From the text: as §1
Determine serum and liver concentrations of parent compound and the metabolites, bisphenol and diphenoquinone, by reverse phase HPLC using a Waters 990 Powerline system. Homegenize livers (1 gram samples) with 5.0mL PBS, pH 7.4, using a Polytron tissue homogenizer at setting 5 for 20-30 seconds. Extract serum or liver homogenates as follows: add 100µL of either serum or homogenate to 2.0mL diethyl ether: ethanol (3:1) while vortexing the tube. Cap the sample tubes and centrifuge for 10 min at 5°C at 3500 rpm in a Beckman GPKR centrifuge with a GH 3.7 rotor. Transfer the supernatants to clean tubes and dry under N2. Reconstitute samples with 200µL of acetonitrile : hexane : 0.1 M ammonium acetate (90: 6.5 : 3.5, by vol.). Then, inject 100µL onto a Waters Deltapak C18-300 Å column, and elute with an 83% acetonitrile : 17% water mobile phase at a flow rate of 1.5mL/min. Record absorbances at the wavelengths of 240, 254, and 420nm. Calculate compound concentrations from known quantities of authentic parent compounds after correction for recovery. […]. Calculate concentrations as µg/mL of serum and µg/g of liver.

Where [4] appears, read: total cholesterol in rat serum, read-out: CHOL.
Setting [5] is: triglycerides in rat serum, read-out: TRIG.
Setting [6] is: parent compound concentration in rat liver, read-out: Liver Parent.
[7] abbreviates: parent compound concentration in rat serum, read-out: Serum Parent.

What is called mortality is the percentage killed. High values mean a strong lethal effect, low ones a weak lethal effect. `CC(C)=CCC[C@H](C)CCOc1ccc(O)c(C(C)(C)C)c1` (stereo in doubt) [MDL 103,649, Phenol, 2-(1,1-dimethylethyl)-4-[(3,7-dimethyl-6-octenyl)oxy]-, (S)-]: in the data set with Male Sprague-Dawley Rats, the ALT worked out at 119%, the ALP amounted to 74%, the AST came out at 82% and the GLUC is on record as 101%. In the data set on Male Sprague-Dawley Rats (setting [4]), the response vs control in vivo at 0.3 % in diet was determined as 89%. Further, in the data set on Male Sprague-Dawley Rats (setting [5]), the response vs control in vivo at 0.3 % in diet is 143%. The compound further had a TBARS in data set [1] of 29%. In addition, the “CONJ. DIENE” value with oxidation of lipids was found to be 375 min. In data set [2], this compound came in with a food of 95%, a lw/bw of 111%, a body wt. of 94% and a mortality of 0%. Moreover, the concentration at 5 day in data set [3] (setting [6]) is 0 ng/g. Further, the concentration at 5 day in data set [3] (setting [7]) was 1400 ng/mL.
In the case of `CC(C)=CCC[C@H](C)CCSc1ccc(O)c(C(C)(C)C)c1` [MDL 103,714, Phenol, 2-(1,1-dimethylethyl)-4-[(3,7-dimethyl-6-octenyl)thio]-, (S)-], in the data set with Male Sprague-Dawley Rats, the ALT stood at 120%, the ALP came out at 111%, the AST is reported as 104% and the GLUC was 95%. The response vs control in vivo at 0.3 % in diet in the data set with Male Sprague-Dawley Rats (setting [4]) turned out to be 90%. Moreover, in the data set with Male Sprague-Dawley Rats (setting [5]), the response vs control in vivo at 0.3 % in diet turned out to be 122%. The TBARS in data set [1] is 21%. Also, in data set [2], the food is reported as 102%, the lw/bw turned out to be 121%, the body wt. came out at 103% and the mortality worked out at 0%. Further, the concentration at 5 day in data set [3] (setting [6]) amounted to 0 ng/g. Moreover, the concentration at 5 day in data set [3] (setting [7]) is 2700 ng/mL.
As for `CC(C)CCCC(C)CCOc1cc(C(C)(C)C)c(O)c(C(C)(C)C)c1` (stereo not shown) [MDL 104,102, Phenol, 2,6-bis(1,1-dimethylethyl)-4-[(3,7-dimethyloctyl)oxy]-], in the data set with Male Sprague-Dawley Rats, the ALT is listed as 114%, the ALP is on record as 101%, the AST is reported as 82% and the GLUC came to 98%. Besides, the response vs control in vivo at 0.3 % in diet in the data set on Male Sprague-Dawley Rats (setting [4]) is 100%. For the same compound, in the data set with Male Sprague-Dawley Rats (setting [5]), the response vs control in vivo at 0.3 % in diet came out at 127%. The compound further returned a TBARS in data set [1] of 71%. Moreover, in the data set with oxidation of lipids, the “CONJ. DIENE” value stood at 229 min. Besides, in data set [2], the food is recorded as 92%, the lw/bw is given as 121%, the body wt. is on record as 97% and the mortality was 0%. For the same compound, in data set [3] (setting [6]), the concentration at 5 day was determined as 481000 ng/g. Besides, the concentration at 5 day in data set [3] (setting [7]) is 32800 ng/mL.
For `CC(CCCC(C)(C)O)CCSc1cc(C(C)(C)C)c(O)c(C(C)(C)C)c1` (stereo not shown) [MDL 104,487, Phenol, 2,6-bis(1,1-dimethylethyl)-4-[(7-hydroxy-3,7-dimethyloctyl)thio]-], in the data set with Male Sprague-Dawley Rats, the ALT is 129%, the ALP was 137%, the AST stood at 124% and the GLUC was 92%. In addition, the response vs control in vivo at 0.3 % in diet in the data set with Male Sprague-Dawley Rats (setting [4]) was determined as 127%. In addition, the response vs control in vivo at 0.3 % in diet in the data set with Male Sprague-Dawley Rats (setting [5]) came to 108%. The compound also gave a TBARS in data set [1] of 87%. In data set [2], the food is 90%, the lw/bw was found to be 150%, the body wt. is on record as 95% and the mortality is given as 0%. Moreover, the concentration at 5 day in data set [3] (setting [6]) was 3800 ng/g. In addition, the concentration at 5 day in data set [3] (setting [7]) worked out at 4100 ng/mL.
For `CC(C)=CCCC(C)CCOc1ccc(O)c(C(C)(C)C)c1` (stereo not shown) [MDL 105,411, Phenol, 2-(1,1-dimethylethyl)-4-[(3,7-dimethyl-6-octenyl)oxy]-], in the data set on Male Sprague-Dawley Rats, the ALT stood at 122%, the ALP is 76%, the AST is recorded as 87% and the GLUC is 96%. Further, the response vs control in vivo at 0.3 % in diet in the data set on Male Sprague-Dawley Rats (setting [4]) came out at 105%. The response vs control in vivo at 0.3 % in diet in the data set with Male Sprague-Dawley Rats (setting [5]) is 100%. In data set [1], the TBARS amounted to 29%. Besides, the “CONJ. DIENE” value with oxidation of lipids is 400 min. Besides, in data set [2], the food amounted to 95%, the lw/bw amounted to 114%, the body wt. was found to be 101% and the mortality was determined as 0%. Also, the concentration at 5 day in data set [3] (setting [6]) was 0 ng/g. Also, the concentration at 5 day in data set [3] (setting [7]) was found to be 1100 ng/mL.
`CC(C)=CCC[C@H](C)CCOc1cc(C(C)(C)C)c(O)cc1C(C)(C)C` [MDL 107,059, Phenol, 2,5-bis(1,1-dimethylethyl)-4-[(3,7-dimethyl-6-octenyl)oxy]-, (S)-]: in the data set with Male Sprague-Dawley Rats, the ALT is listed as 116%, the ALP is recorded as 118%, the AST stood at 140% and the GLUC is on record as 96%. Moreover, the response vs control in vivo at 0.3 % in diet in the data set with Male Sprague-Dawley Rats (setting [4]) was determined as 89%. Also, the response vs control in vivo at 0.3 % in diet in the data set on Male Sprague-Dawley Rats (setting [5]) turned out to be 35%. Besides, in data set [1], the TBARS is given as 78%. Further, the “CONJ. DIENE” value in the data set with oxidation of lipids was 201 min. In data set [2], this compound displayed a food of 95%, a lw/bw of 107%, a body wt. of 95% and a mortality of 0%. Besides, in data set [3] (setting [6]), the concentration at 5 day was 0 ng/g. The concentration at 5 day in data set [3] (setting [7]) is 0 ng/mL.
